Measured values reported in ChEMBL document CHEMBL3396979, “Synthesis and characterization of 1'-C-cyano-2'-fluoro-2'-C-methyl pyrimidine nucleosides as HCV polymerase inhibitors” (Bioorg Med Chem Lett, 2015).

Key:
[1] = Inhibition of HCV genotype 1b NS5B RNA dependent RNA polymerase assessed as reduction in triphosphate activity; design: species or system Hepatitis C virus subtype 1b
[2] = tested on: Hepatitis C virus; assay: Antiviral activity against HCV genotype 1b infected in human HuH7 cells by replicon based assay; assay type: functional, cell-based, Hepacivirus hominis; conditions: Huh-7
[3] = tested on: Hepatitis C virus; assay: Antiviral activity against HCV genotype 1a infected in human HuH7 cells by replicon based assay; assay type: functional, cell-based, Hepacivirus hominis; conditions: subtype 1a, Huh-7
[4] = tested on: Hepatitis C virus; assay: Antiviral activity against HCV genotype 2a infected in human HuH7 cells by replicon based assay; assay type: functional, cell-based, Hepacivirus hominis; conditions: Huh-7
[5] = Drug metabolism in human HuH7 cells bearing HCV replicons assessed as formation of triphosphates at 10 uM after 72 hrs by liquid chromatography coupled to triple quadrupole mass spectrometry; assay type: ADME, cell-based; conditions: huh-7, 72 h
[6] = Drug metabolism in human HuH7 cells bearing HCV replicons assessed as formation of uridine-type triphosphates at 10 uM after 72 hrs by liquid chromatography coupled to triple quadrupole mass spectrometry; assay type: ADME, cell-based; conditions: huh-7, 72 h
[7] = Cytotoxicity against human HuH7 cells; assay type: cell-based, Huh-7
[8] = Inhibition of HCV genotype 3a NS5B RNA dependent RNA polymerase assessed as reduction in triphosphate activity; design: species or system Hepatitis C virus subtype 3a
[9] = Inhibition of HCV genotype 2a NS5B RNA dependent RNA polymerase assessed as reduction in triphosphate activity; design: species or system Hepatitis C virus subtype 2a
[10] = Inhibition of HCV genotype 4a NS5B RNA dependent RNA polymerase assessed as reduction in triphosphate activity; design: species or system Hepatitis C virus subtype 4a

| SMILES | IC50 ([1]; read-out: IC50) | EC50 [2] | EC50 [3] | other results |
| --- | --- | --- | --- | --- |
| C[C@@]1(O)[C@H](O)[C@@H](CO)O[C@@]1(C#N)n1ccc(=O)[nH]c1=O | 27 µM | > 89 µM | > 89 µM | – |
| C[C@@]1(F)[C@H](O)[C@@H](CO)O[C@@]1(C#N)n1ccc(=O)[nH]c1=O | – | > 89 µM | > 89 µM | IC50 [1]: Not Active |
| C[C@@]1(F)[C@H](O)[C@@H](CO)O[C@@]1(C#N)n1ccc(N)nc1=O | 57 µM | > 89 µM | > 89 µM | – |
| C[C@@]1(O)[C@H](O)[C@@H](CO)O[C@H]1n1ccc(N)nc1=O | 1.7 µM | – | – | – |
| C[C@@]1(F)[C@H](O)[C@@H](CO)O[C@H]1n1ccc(=O)[nH]c1=O | 0.7 µM | > 89 µM | > 89 µM | IC50 [8]: 0.7 µM; IC50 [9]: 0.7 µM; IC50 [10]: 0.7 µM |

Now from value to molecule, other results behind:

| IC50 ([1]; read-out: IC50) | EC50 [2] | EC50 [3] | SMILES | other results |
| --- | --- | --- | --- | --- |
| 1.9 µM | 13.1 µM | – | C[C@@]1(O)[C@H](O)[C@@H](CO)O[C@H]1n1ccc(=O)[nH]c1=O | – |
| – | 2.3 µM | 0.6 µM | C[C@@]1(F)[C@H](O)[C@@H](CO)O[C@H]1n1ccc(N)nc1=O | Ki [1]: 0.06 µM |
| 17.7 µM | > 89 µM | 76 µM | C[C@@]1(O)[C@H](O)[C@@H](CO)O[C@@]1(C#N)n1ccc(N)nc1=O | – |
| – | 17.6 µM | 2.9 µM | CC(C)OC(=O)[C@H](C)N[P@](=O)(OC[C@H]1O[C@@](C#N)(n2ccc(N)nc2=O)[C@](C)(F)[C@@H]1O)Oc1ccccc1 | EC50 [4]: 2.3 µM; Drug metabolism [5]: metabolite_detected; Drug metabolism [6]: metabolite_notdetected; CC50 [7]: > 89 µM |
| – | 63.5 µM | – | CC(C)OC(=O)[C@H](C)N[P@](=O)(OC[C@H]1O[C@@](C#N)(n2ccc(=O)[nH]c2=O)[C@](C)(F)[C@@H]1O)Oc1ccccc1 | EC50 [4]: > 88 µM; Drug metabolism [5]: metabolite_detected; CC50 [7]: > 89 µM |
